The text below walks through data of paper doi:10.1101/2022.07.11.499659v1 (bioRxiv, 2022).

The target of assay [1] is T1, α-Synuclein (αS) aggregation (Homo sapiens, UniProt P37840). Put plainly: Thioflavin T. It counts as biochemical. The following applies: 100 μM αS in 1 × PBS, ligand at equimolar ratio, four days.
Assay [2] relates to UA196 worms (human αS and GFP in DA neurons). Put plainly: Confocal count of healthy DA neurons in UA196 worms, early treatment. The following applies: UA196, 50 μM on day two. It counts as in vivo, C. elegans.
The target in assay [3] is T1, α-Synuclein (αS) aggregation. The assay can be described thus: Spin-down assay / SDS-PAGE of soluble and insoluble αS fractions. It counts as biochemical. The following applies: 100 μM αS aggregated four days, indicated molar ratios.
Assay [4] has as its target αS (Homo sapiens, UniProt P37840). The assay can be described thus: 2D HSQC. It counts as binding. The following applies: 70 μM 15N αS, NS132 equimolar.
In assay [5] the test system is NL5901 worms (αS-YFP in body wall muscle cells). The assay can be described thus: Confocal count of αS-YFP inclusions in NL5901 worms. It counts as in vivo, C. elegans. The following applies: NL5901, 50 μM on day two.

On to `Cc1ccc(NC(=O)c2ccc(NC(=O)c3ccc([N+](=O)[O-])c(NCCc4c[nH]c5ccccc45)n3)c(NCC3CCCCC3)n2)c(OCC(=O)NO)n1` [NS163], for which the “Effect on αS aggregation, ThT assay” value in assay [1] was “potent antagonist of αS aggregation”. Also, the “neuroprotective effect on degeneration of DA neurons” value in assay [2] is “remarkable neuroprotective effect”. In assay [2] (up to 15 days), the “% loss of the total number of DA neurons” value was less than 5%.
In the case of `Cc1ccc(NC(=O)c2ccc(NC(=O)c3ccc([N+](=O)[O-])c(NCCc4c[nH]c5ccccc45)n3)c(NCC3CCCCC3)n2)c(OCC(=O)OC(C)(C)C)n1` [NS132-P], the “Antagonist activity by SDS-PAGE analysis” value in assay [3] is recorded as “poor antagonist of αS aggregation”.
Turning to `Cc1ccc(NC(=O)c2ccc(NC(=O)c3ccc([N+](=O)[O-])c(NCCc4c[nH]c5ccccc45)n3)c(NCC3CCCCC3)n2)c(OCC(=O)O)n1` [NS132], the “binding site of NS132 on αS (residues with changed amide peaks)” value in assay [4] was “residues 10-20, 36-43, and 50,55,59”. In addition, the “Effect on αS aggregation, ThT assay” value in assay [1] is given as “most potent antagonist”. Moreover, the “neuroprotective effect on degeneration of DA neurons” value in assay [2] was “very good neuroprotective effect”. Also, the “number of inclusions” value in assay [5] is “decrease in the number of inclusions”.
